#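 Cells were grown in 96-well plates and exposed to each compound for 48 hours at five concentrations; endpoints were interpolated linearly between bracketing concentrations, or set to the highest concentration if not reached. GI50 = concentration required for 50% inhibition of growth.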 Calls of active or inactive are those of the source. Cut-off read from the data, not from the text of the source: active = GI50 up to about 1.1 µM and inactive = higher.
# Tests used:
# Experiment in all cases: NCI anticancer screen, dose series, 48 h
# [1] = system: 786-0
# [2] = system: A498
# [3] = system: A549
# [4] = system: ACHN
# [5] = system: BT-549
# [6] = system: CAKI-1
# [7] = system: CCRF-CEM
# [8] = system: COLO 205
# [9] = system: DU-145
# [10] = system: HCC 2998
# [11] = system: HCT-116
# [12] = system: HCT-15
# [13] = system: HL-60
# [14] = system: HOP-92
# [15] = system: HT-29
# [16] = system: Hs-578T
# [17] = system: K562
# [18] = system: KM12
# [19] = system: LOX IMVI
# [20] = system: MDA-MB-231
# [21] = system: MDA-MB-435
# [22] = system: MDA-N
# [23] = system: Malme-3M
# [24] = system: NCI-H226
# [25] = system: NCI-H23
# [26] = system: NCI-H460
# [27] = system: NCI-H522
# [28] = system: NCI/ADR-RES
# [29] = system: OVCAR-4
# [30] = system: OVCAR-8
# [31] = system: PC-3
# [32] = system: RPMI-8226
# [33] = system: SF-268
# [34] = system: SK-MEL-28
# [35] = system: SK-MEL-2
# [36] = system: SK-MEL-5
# [37] = system: SN12C
# [38] = system: SNB-19
# [39] = system: SNB-75
# [40] = system: SR
# [41] = system: SW-620
# [42] = system: T47D
# [43] = system: TK-10
# [44] = system: U-251
# [45] = system: UACC-257
# [46] = system: UACC-62
# [47] = system: UO-31
# [48] = system: IGROV-1
# [49] = system: M14
# [50] = system: MOLT-4
# [51] = system: OVCAR-3
# [52] = system: OVCAR-5
# [53] = system: RXF 393
# [54] = system: SF-539
# [55] = system: SK-OV-3
structure (smiles),measurement,setting,value
Cn1ccc(C(=O)N2CCSC2=S)c(OCc2ccccc2)c1=O,GI50,[1],> 100 µM (inactive)
same,GI50,[2],> 100 µM (inactive)
same,GI50,[3],> 100 µM (inactive)
same,GI50,[4],> 100 µM (inactive)
same,GI50,[5],> 100 µM (inactive)
same,GI50,[6],72.3 µM (inactive)
same,GI50,[7],48.8 µM (inactive)
same,GI50,[8],> 100 µM (inactive)
same,GI50,[9],> 100 µM (inactive)
same,GI50,[10],> 100 µM (inactive)
same,GI50,[11],> 100 µM (inactive)
same,GI50,[12],> 100 µM
same,GI50,[13],54.8 µM (inactive)
same,GI50,[14],79.1 µM (inactive)
same,GI50,[15],> 100 µM (inactive)
same,GI50,[16],> 100 µM (inactive)
same,GI50,[17],> 100 µM (inactive)
same,GI50,[18],> 100 µM (inactive)
same,GI50,[19],> 100 µM (inactive)
same,GI50,[20],> 100 µM (inactive)
same,GI50,[21],> 100 µM (inactive)
same,GI50,[22],> 100 µM (inactive)
same,GI50,[23],87.7 µM (inactive)
same,GI50,[24],> 100 µM (inactive)
same,GI50,[25],> 100 µM (inactive)
same,GI50,[26],> 100 µM (inactive)
same,GI50,[27],39.2 µM (inactive)
same,GI50,[28],> 100 µM (inactive)
same,GI50,[29],> 100 µM (inactive)
same,GI50,[30],> 100 µM (inactive)
same,GI50,[31],> 100 µM (inactive)
same,GI50,[32],> 100 µM (inactive)
same,GI50,[33],> 100 µM (inactive)
same,GI50,[34],> 100 µM (inactive)
same,GI50,[35],> 100 µM (inactive)
same,GI50,[36],> 100 µM (inactive)
same,GI50,[37],> 100 µM (inactive)
same,GI50,[38],> 100 µM (inactive)
same,GI50,[39],70.1 µM (inactive)
same,GI50,[40],26.7 µM (inactive)
same,GI50,[41],> 100 µM (inactive)
same,GI50,[42],66.7 µM (inactive)
same,GI50,[43],> 100 µM (inactive)
same,GI50,[44],> 100 µM (inactive)
same,GI50,[45],> 100 µM (inactive)
same,GI50,[46],> 100 µM (inactive)
same,GI50,[47],67.8 µM (inactive)
N=c1oc2ccc(Cl)cc2cc1C(N)=O,GI50,[1],24.8 µM (inactive)
same,GI50,[2],32.7 µM (inactive)
same,GI50,[3],42.6 µM (inactive)
same,GI50,[4],24.4 µM (inactive)
same,GI50,[5],35.2 µM (inactive)
same,GI50,[6],34.1 µM (inactive)
same,GI50,[7],40.6 µM (inactive)
same,GI50,[8],36.6 µM (inactive)
same,GI50,[9],35.9 µM (inactive)
same,GI50,[10],25.7 µM (inactive)
same,GI50,[11],21.2 µM (inactive)
same,GI50,[12],29.4 µM
same,GI50,[13],54.2 µM (inactive)
same,GI50,[14],36 µM (inactive)
same,GI50,[15],38.5 µM (inactive)
same,GI50,[16],18.5 µM (inactive)
same,GI50,[48],21.4 µM (inactive)
same,GI50,[17],> 100 µM (inactive)
same,GI50,[18],24.2 µM (inactive)
same,GI50,[19],31.8 µM (inactive)
same,GI50,[49],27.5 µM (inactive)
same,GI50,[20],24.4 µM (inactive)
same,GI50,[21],31.7 µM (inactive)
same,GI50,[22],25.1 µM (inactive)
same,GI50,[50],> 100 µM (inactive)
same,GI50,[23],17.6 µM (inactive)
same,GI50,[24],28.2 µM (inactive)
same,GI50,[25],22.4 µM (inactive)
same,GI50,[26],30.8 µM (inactive)
same,GI50,[28],34.4 µM (inactive)
same,GI50,[51],18.2 µM (inactive)
same,GI50,[29],37.1 µM (inactive)
same,GI50,[52],27 µM (inactive)
same,GI50,[30],33.2 µM (inactive)
same,GI50,[31],17.2 µM (inactive)
same,GI50,[32],66.4 µM (inactive)
same,GI50,[53],29.6 µM (inactive)
same,GI50,[33],26.3 µM (inactive)
same,GI50,[54],31.3 µM (inactive)
same,GI50,[34],29 µM (inactive)
same,GI50,[35],13.3 µM (inactive)
same,GI50,[36],20.5 µM (inactive)
same,GI50,[55],> 100 µM (inactive)
same,GI50,[37],18.8 µM (inactive)
same,GI50,[38],26.7 µM (inactive)
same,GI50,[39],26.1 µM (inactive)
same,GI50,[40],65.3 µM (inactive)
same,GI50,[41],45.9 µM (inactive)
same,GI50,[42],24.8 µM (inactive)
same,GI50,[44],40.4 µM (inactive)
same,GI50,[45],45.4 µM (inactive)
same,GI50,[46],16.8 µM (inactive)
